# Source: ChEMBL document CHEMBL1201862, “PubChem BioAssay data set” (2004)
# Calls of active or inactive are those of the source.
# Target: T1, Heat shock factor protein 1 (Mus musculus, UniProt P38532)
# T1 sequence (P38532 whole entry): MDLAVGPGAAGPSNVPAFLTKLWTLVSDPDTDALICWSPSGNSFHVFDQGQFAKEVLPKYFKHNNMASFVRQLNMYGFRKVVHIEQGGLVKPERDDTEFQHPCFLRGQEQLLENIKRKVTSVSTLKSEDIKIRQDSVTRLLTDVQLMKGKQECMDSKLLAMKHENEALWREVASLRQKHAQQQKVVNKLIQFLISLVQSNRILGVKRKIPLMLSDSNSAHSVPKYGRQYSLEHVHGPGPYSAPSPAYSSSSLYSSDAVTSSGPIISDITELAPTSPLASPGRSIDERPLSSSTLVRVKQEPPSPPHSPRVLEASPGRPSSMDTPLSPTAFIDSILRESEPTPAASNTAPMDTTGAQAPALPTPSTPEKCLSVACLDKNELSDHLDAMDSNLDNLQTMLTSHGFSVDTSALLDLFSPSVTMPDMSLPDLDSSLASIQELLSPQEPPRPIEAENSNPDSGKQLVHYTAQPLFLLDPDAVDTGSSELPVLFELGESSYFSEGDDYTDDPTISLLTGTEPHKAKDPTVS
# Experiment: HSF1 potentiators in luciferase reporter cells, confirmation, cell-based, NIH3T3, luminescence, dose retest (AID 435004);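 also: stress induced by proteasome inhibitor MG132 added 30 min after compound; luciferase reporter driven by HSF1 response element in NIH3T3 cells; actives raise luminescence as potentiators of the MG132 stress response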
# Assay type: functional
# Settings: not given
row,SMILES,EC50
1,COc1ccc(Cc2nnc(SCC(=O)Nc3ccc(N4CCOCC4)cc3)o2)cc1,> 260 µM (inactive)
2,COc1ccc(Br)cc1CN1CCCCCCC1,> 260 µM (inactive)
3,COC(=O)C1C(=O)C2=C(CC1C)N=C(C)/C(=C(/O)OCc1ccc(OC)cc1)C2c1ccc(C)o1 (stereo not drawn),> 260 µM (inactive)
4,O=C(CCc1ccc(S(=O)(=O)N2CCOCC2)cc1)N1CCN(Cc2ccc3c(c2)OCO3)CC1,> 260 µM (inactive)
5,CN(/C(=N\S(=O)(=O)c1ccccc1)c1ccccc1)c1ccc(O)cc1,> 260 µM (inactive)
6,COc1ccc(-c2cc(C(=O)NCc3ccco3)c3ccccc3n2)cc1,158 µM (active)
7,COc1ccc(S(=O)(=O)Cc2ccc(C(=O)NCCCN(C)c3ccccc3)o2)cc1,> 260 µM (inactive)

# Further lines, results first:
row,EC50,SMILES
1,> 260 µM (inactive),COc1cc(NC(=O)c2cc([N+](=O)[O-])ccc2NC(=O)CNC2CCCCC2C)cc(OC)c1 (stereo not drawn)
2,15 µM (active),COc1cc(/C=C/C(=O)c2c(O)ccc3c(C)cc(=O)oc23)ccc1O
3,> 260 µM (inactive),C=CCc1ccc(OCC(O)CO)c(OC)c1 (stereo not drawn)
4,> 260 µM (inactive),Cc1ccc(C(=O)NCC(C)NC(=O)c2ccc(C)c([N+](=O)[O-])c2)cc1[N+](=O)[O-] (stereo not drawn)
5,165 µM (active),Oc1cccnc1Sc1cccc(C(F)(F)F)c1

# Tested on: not listed separately
# Experiment: HEp-2 cell cytotoxicity, dose response, cytotoxicity control for RSV inhibitor project, HTS (AID 2410)
# Assay type: functional
# Settings: human respiratory syncytial virus
row,SMILES,CC50
1,CCOc1ccc(OCc2ccc(C(=O)N3CCc4ccccc4C3)o2)cc1,23.4 µM (active)

# Target: Cytochrome P450 3A4 (Homo sapiens, UniProt P08684);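 also: CYP3A4 tested as one member of a cytochrome P450 panel screen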
# Settings: not given
# Cytochrome P450 3A4, sequence (P08684 whole entry): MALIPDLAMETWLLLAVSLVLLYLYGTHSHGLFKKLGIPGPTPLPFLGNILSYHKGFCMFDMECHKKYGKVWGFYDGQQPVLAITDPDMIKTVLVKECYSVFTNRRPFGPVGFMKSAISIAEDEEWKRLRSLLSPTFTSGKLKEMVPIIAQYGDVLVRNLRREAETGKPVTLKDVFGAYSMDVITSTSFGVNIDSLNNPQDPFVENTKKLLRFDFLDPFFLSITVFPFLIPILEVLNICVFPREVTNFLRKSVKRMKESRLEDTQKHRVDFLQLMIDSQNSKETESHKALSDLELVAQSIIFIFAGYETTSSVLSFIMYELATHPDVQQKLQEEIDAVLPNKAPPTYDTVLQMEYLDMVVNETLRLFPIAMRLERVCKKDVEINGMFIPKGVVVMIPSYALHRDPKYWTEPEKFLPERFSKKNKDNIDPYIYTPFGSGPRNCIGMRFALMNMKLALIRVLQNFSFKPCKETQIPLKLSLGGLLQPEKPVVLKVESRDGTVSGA
row,AC50,SMILES
1,39.8 µM (inconclusive),CCOc1ccc(OCc2ccc(C(=O)N3CCc4ccccc4C3)o2)cc1

# Target: T1, Heat shock factor protein 1
# Experiment: inhibition of MG132-induced HSE-luciferase signal, confirmation, cell-based, NIH3T3, luminescence, dose retest (AID 2382);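 also: NIH3T3 fibroblasts with HSF1-driven luciferase reporter stressed by proteasome inhibitor MG132; luminescence from HSF1-driven luciferase expression after 8 hours of MG132 stress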
# Assay type: functional
# Settings: not given
row,EC50,SMILES
1,> 195 µM (not active),CCOC(=O)CN1C(=O)S/C(=C/c2cc(C)n(C)c2C)C1=O
2,> 195 µM (not active),CCOC(=O)c1cc(C#N)c(NCc2ccccc2)nc1C
3,35.9 µM (active),O=C(O)/C=C/C(=O)Nc1cc(F)ccc1F
4,> 195 µM (not active),CC1COc2ccccc2N1C(=O)c1ccc(F)cc1 (stereo not drawn)
